Bounds are passed on as bounds.

The assay concerns HCV genotype 1b replicon in Huh 7 cells. Description: HCV replicon assay (1b_Huh-Luc/Neo-ET cell line, luciferase readout). It counts as cell-based. Particulars: Hepatitis C virus; Table 1; genotype 1b replicon, Huh 7 cells, 72 h, luciferase; read-out: Inhibition of HCV genotype 1b. How it is done:
Biological activity of the compounds of the invention was determined using an HCV replicon assay. The 1b_Huh-Luc/Neo-ET cell line persistently expressing a bicistronic genotype 1b replicon in Huh 7 cells was obtained from ReBLikon GMBH. This cell line was used to test compound inhibition using luciferase enzyme activity readout as a measurement of compound inhibition of replicon levels.
On Day 1 (the day after plating), each compound is added in triplicate to the cells. Plates incubated for 72 h prior to running the luciferase assay. Enzyme activity was measured using a Bright-Glo Kit (cat. number E2620) manufactured by Promega Corporation. The following equation was used to generate a percent control value for each compound. % Control=(Average Compound Value/Average Control)*100
The EC50 value was determined using GraphPad Prism and the following equation: Y=Bottom+(Top−Bottom)/(1+10^((Log IC50−X)*HillSlope))
EC50 values of compounds are repeated several times in the replicon assay.
(In general: Replicon systems follow genome replication, usually without infectious particles.)

With `COC(=O)N[C@H](C(=O)N1CCC[C@H]1c1ncc(-c2ccc(-c3ccc4cc(-c5c[nH]c([C@@H]6CCCN6C(=O)[C@@H](NC(=O)OC)C6CCOCC6)n5)cnc4c3)c(F)c2)[nH]1)C(C)C` [compound 59], the EC50 is below 1 nM.
For `COC(=O)N[C@H](C(=O)N1CCC[C@H]1c1ncc(-c2ccc(-c3ccc4cc(-c5c[nH]c([C@@H]6CCCN6C(=O)[C@H](NC(=O)OC)c6ccccc6)n5)cnc4c3)nc2)[nH]1)C(C)C` [compound 60] the value was below 1 nM.
For the molecule `COC(=O)N[C@H](C(=O)N1CCC[C@H]1c1ncc(-c2ccc(-c3ccc4cc(-c5c[nH]c([C@@H]6CCCN6C(=O)[C@@H](NC(=O)OC)C6CCOCC6)n5)cnc4c3)nc2)[nH]1)C(C)C` [compound 61], the EC50 was below 1 nM.
For `COC(=O)N[C@H](C(=O)N1CCC[C@H]1c1nc(-c2cnc3cc(-c4ccc(-c5cnc([C@@H]6CCCN6C(=O)[C@@H](NC(=O)OC)C6CCOCC6)[nH]5)cn4)ccc3c2)c[nH]1)C(C)C` [compound 62] the value was below 1 nM.
To `COC(=O)N[C@H](C(=O)N1CCC[C@H]1c1nc(-c2ccc3cc(-c4ccc(-c5cnc([C@@H]6CCCN6C(=O)[C@H](NC(=O)OC)c6ccccc6)[nH]5)nc4)ccc3c2)c[nH]1)C(C)C` [compound 63] belongs below 1 nM; to `COC(=O)N[C@H](C(=O)N1CCC[C@H]1c1nc(-c2ccc3cc(-c4ccc(-c5cnc([C@@H]6CCCN6C(=O)[C@H](NC(=O)OC)c6ccccc6)[nH]5)cc4F)ccc3c2)c[nH]1)C(C)C` [compound 64], below 1 nM.
For `COC(=O)N[C@H](C(=O)N1CCC[C@H]1c1nc(-c2ccc3cc(-c4ccc(-c5cnc([C@@H]6CCCN6C(=O)[C@@H](NC(=O)OC)C6CCOCC6)[nH]5)cc4F)ccc3c2)c[nH]1)C(C)C` [compound 65] the value was below 1 nM; for `COC(=O)N[C@H](C(=O)N1CCC[C@H]1c1nc(-c2ccc3cc(-c4ccc(-c5cnc([C@@H]6CCCN6C(=O)[C@@H](NC(=O)OC)C(C)C)[nH]5)cc4F)ccc3c2)c[nH]1)C(C)C` [compound 66], below 1 nM; for `COC(=O)N[C@H](C(=O)N1CCC[C@H]1c1ncc(-c2ccc(-c3ccc4cc(-c5c[nH]c([C@@H]6CCCN6C(=O)[C@H](NC(=O)OC)c6ccccc6)n5)ccc4c3)c(F)c2)[nH]1)C(C)C` [compound 67], below 1 nM.
Regarding `COC(=O)N[C@H](C(=O)N1CCC[C@H]1c1ncc(-c2ccc(-c3ccc4cc(-c5c[nH]c([C@@H]6CCCN6C(=O)[C@@H](NC(=O)OC)C6CCOCC6)n5)ccc4c3)c(F)c2)[nH]1)C(C)C` [compound 68], the EC50 was below 1 nM.
To `COC(=O)N[C@H](C(=O)N1CCC[C@H]1c1nc(-c2ccc3cc(-c4ccc(-c5cnc([C@@H]6CCCN6C(=O)[C@H](NC(=O)OC)c6ccccc6)[nH]5)cc4C)ccc3c2)c[nH]1)C(C)C` [compound 69] belongs below 1 nM; to `COC(=O)N[C@H](C(=O)N1CCC[C@H]1c1ncc(-c2ccc(-c3ccc4cc(-c5c[nH]c([C@@H]6CCCN6C(=O)[C@H](NC(=O)OC(C)(C)C)c6ccccc6)n5)ccc4n3)cn2)[nH]1)C(C)C` [compound 70], below 1 nM; to `COC(=O)N[C@H](C(=O)N1CCC[C@H]1c1nc(-c2cnc3cc(-c4ccc(-c5cnc([C@@H]6CCCN6C(=O)[C@H](NC(=O)OC)c6ccccc6)[nH]5)cc4)ccc3c2)c[nH]1)C1CCOCC1` [compound 71], below 1 nM.
To `COC(=O)N[C@H](C(=O)N1CCC[C@H]1c1nc(-c2cnc3cc(-c4ccc(-c5cnc([C@@H]6CCCN6C(=O)[C@H](NC(=O)OC(C)(C)C)c6ccccc6)[nH]5)cc4)ccc3c2)c[nH]1)C1CCOCC1` [compound 72] belongs below 1 nM; to `COC(=O)N[C@H](C(=O)N1CCC[C@H]1c1nc(-c2cnc3cc(-c4ccc(-c5cnc([C@@H]6CCCN6C(=O)[C@@H](NC(=O)OC)C6CCOCC6)[nH]5)cc4)ccc3c2)c[nH]1)C1CCOCC1` [compound 73], below 1 nM.
To `COC(=O)N[C@H](C(=O)N1CCC[C@H]1c1nc(-c2cnc3cc(-c4ccc(-c5cnc([C@@H]6CCCN6C(=O)[C@@H](NC(=O)OC)C(C)C)[nH]5)cn4)ccc3c2)c[nH]1)C(C)C` [compound 74] belongs below 1 nM; to `COC(=O)N[C@H](C(=O)N1CCC[C@H]1c1nc(-c2cnc3cc(-c4ccc(-c5cnc([C@@H]6CCCN6C(=O)[C@@H](NC(=O)OC)C6CCOCC6)[nH]5)cn4)ccc3c2)c[nH]1)C1CCOCC1` [compound 75], below 1 nM.
`COC(=O)N[C@H](C(=O)N1CCC[C@H]1c1nc(-c2ccc3[nH]c(-c4ccc(-c5cnc([C@@H]6CCCN6C(=O)[C@@H](NC(=O)OC)C(C)C)[nH]5)cc4)cc(=O)c3c2)c[nH]1)C(C)C` [compound 76]: the EC50 was below 1 nM.
For `COC(=O)N[C@@H](C(=O)N1CCC[C@H]1c1nc(-c2ccc3[nH]c(-c4ccc(-c5cnc([C@@H]6CCCN6C(=O)[C@H](NC(=O)OC)c6ccccc6)[nH]5)cc4)cc(=O)c3c2)c[nH]1)c1ccccc1` [compound 77] the value was 10 to 999 nM; for `COC(=O)N[C@@H](C(=O)N1CCC[C@H]1c1nc(-c2ccc3nc(-c4ccc(-c5cnc([C@@H]6CCCN6C(=O)[C@H](NC(=O)OC)c6ccccc6)[nH]5)cc4)cc(OC)c3c2)c[nH]1)c1ccccc1` [compound 78], below 1 nM; for `COC(=O)N[C@H](C(=O)N1CCC[C@H]1c1nc(-c2ccc3nc(-c4ccc(-c5cnc([C@@H]6CCCN6C(=O)[C@@H](NC(=O)OC)C(C)C)[nH]5)cc4)cc(OC)c3c2)c[nH]1)C(C)C` [compound 79], below 1 nM.
With `COC(=O)N[C@@H](C(=O)N1CCC[C@H]1c1nc(-c2cnc3cc(-c4ccc(-c5cnc([C@@H]6CCCN6C(=O)[C@H](NC(=O)OC)c6ccccc6)[nH]5)cn4)ccc3c2)c[nH]1)c1ccccc1` [compound 80], the EC50 is below 1 nM.
For `COC(=O)N[C@H](C(=O)N1CCC[C@H]1c1ncc(-c2ccc(-c3ccc4cc(-c5c[nH]c([C@@H]6CCCN6C(=O)[C@H](NC(=O)OC6CCOCC6)c6ccccc6)n5)cnc4c3)nc2)[nH]1)C(C)C` [compound 81] the value was below 1 nM; for `COC(=O)N[C@H](C(=O)N1CCC[C@H]1c1ncc(-c2ccc(-c3ccc4cc(-c5c[nH]c([C@@H]6CCCN6C(=O)[C@H](NC(=O)OC(C)(C)C)c6ccccc6)n5)cnc4c3)nc2)[nH]1)C(C)C` [compound 82], below 1 nM; for `COC(=O)N[C@H](C(=O)N1CCC[C@H]1c1nc(-c2ccc3cc(-c4ccc(-c5cnc([C@@H]6CCCN6C(=O)[C@@H](NC(=O)OC)C(C)C)[nH]5)nc4)ccc3c2)c[nH]1)C(C)C` [compound 83], below 1 nM.
For `COC(=O)N[C@H](C(=O)N1CCC[C@H]1c1nc(-c2ccc3cc(-c4ccc(-c5cnc([C@@H]6CCCN6C(=O)[C@@H](NC(=O)OC)C6CCOCC6)[nH]5)nc4)ccc3c2)c[nH]1)C(C)C` [compound 84] the value was below 1 nM; for `COC(=O)N[C@H](C(=O)N1CCC[C@H]1c1nc(-c2ccc3cc(-c4ccc(-c5cnc([C@@H]6CCCN6C(=O)[C@@H](NC(=O)OC)C(C)C)[nH]5)cc4C)ccc3c2)c[nH]1)C(C)C` [compound 85], below 1 nM; for `COC(=O)N[C@H](C(=O)N1CCC[C@H]1c1nc(-c2ccc3cc(-c4ccc(-c5cnc([C@@H]6CCCN6C(=O)[C@@H](NC(=O)OC)C6CCOCC6)[nH]5)cc4C)ccc3c2)c[nH]1)C(C)C` [compound 86], below 1 nM.
For `COC(=O)N[C@H](C(=O)N1CCC[C@H]1c1ncc(-c2ccc(-c3ccc4cc(-c5c[nH]c([C@@H]6CCCN6C(=O)[C@H](NC(=O)OC)c6ccccc6)n5)ccc4c3)c(C)c2)[nH]1)C(C)C` [compound 87] the value was below 1 nM; for `COC(=O)N[C@H](C(=O)N1CCC[C@H]1c1nc(-c2cnc3cc(-c4ccc(-c5cnc([C@@H]6CCCN6C(=O)[C@H](NC(=O)OC6CCOCC6)c6ccccc6)[nH]5)cc4)ccc3c2)c[nH]1)C(C)C` [compound 88], below 1 nM; for `COC(=O)N[C@H](C(=O)N1CCC[C@H]1c1nc(-c2cnc3cc(-c4ccc(-c5cnc([C@@H]6CCCN6C(=O)[C@H](NC(=O)OC6CCOCC6)c6ccccc6)[nH]5)cc4)ccc3c2)c[nH]1)C1CCOCC1` [compound 89], below 1 nM.
Turning to `COC(=O)N[C@H](C(=O)N1CCC[C@H]1c1ncc(-c2ccc(-c3ccc4cc(-c5c[nH]c([C@@H]6CCCN6C(=O)[C@H](NC(=O)OC)c6ccccc6)n5)ccc4n3)cc2)[nH]1)C1CCOCC1` [compound 90], the EC50 is below 1 nM.
Turning to `COC(=O)N[C@H](C(=O)N1CCC[C@H]1c1ncc(-c2ccc(-c3ccc4cc(-c5c[nH]c([C@@H]6CCCN6C(=O)[C@H](NC(=O)OC(C)(C)C)c6ccccc6)n5)ccc4n3)cc2)[nH]1)C1CCOCC1` [compound 91], the EC50 is below 1 nM.
To `COC(=O)N[C@H](C(=O)N1CCC[C@H]1c1ncc(-c2ccc(-c3ccc4cc(-c5c[nH]c([C@@H]6CCCN6C(=O)[C@H](NC(=O)OC6CCOCC6)c6ccccc6)n5)ccc4n3)cc2)[nH]1)C1CCOCC1` [compound 92] belongs below 1 nM; to `COC(=O)N[C@H](C(=O)N1CCC[C@H]1c1nc(-c2cnc3cc(-c4ccc(-c5cnc([C@@H]6CCCN6C(=O)[C@@H](NC(=O)OC)C(C)C)[nH]5)nc4)ccc3c2)c[nH]1)C(C)C` [compound 93], below 1 nM.
For `COC(=O)N[C@H](C(=O)N1CCC[C@H]1c1ncc(-c2ccc(-c3ccc4cc(-c5c[nH]c([C@@H]6CCCN6C(=O)[C@H](NC(=O)OC)c6ccccc6)n5)cnc4c3)cn2)[nH]1)C(C)C` [compound 94] the value was below 1 nM; for `COC(=O)N[C@H](C(=O)N1CCC[C@H]1c1ncc(-c2ccc(-c3ccc4cc(-c5c[nH]c([C@@H]6CCCN6C(=O)[C@@H](NC(=O)OC)C6CCOCC6)n5)cnc4c3)cn2)[nH]1)C(C)C` [compound 95], below 1 nM.

The values above are taken from patent US8877707B2, “Inhibitors of HCV NS5A” (Presidio Pharmaceuticals, Inc., priority 2010, dated 2014).
